Where a name gives a salt, the structure may show the parent alone.
What was measured:
[1] = test system: male mice; assay: acute toxicity, intraperitoneal (lethal doses); type: in vivo, mouse; conditions: i.p.
Experimental: (§1) By intraperitoneal administration to male mice, the LD-30 (lethal dose for 30% of the animals tested) is of the order of 128 mg/kg and the LD-50 is of the order of about 200 mg/kg.

[2] = acute toxicity, intraperitoneal (lethal doses); type: in vivo, mouse; conditions: mouse, in vivo, ip; male mice
Experimental: as §1

[3] = test system: man; assay: clinical trials; type: in vivo, human; conditions: man, oral, 250 to 500 mg
[4] = test system: dogs; assay: cardiovascular action in anesthetized dogs; type: in vivo, dog
Experimental: Four dogs (average weight: 13.8 kg), anesthetized with nembutal, receive CRL 41 220 by intraduodenal administration at successive doses of 0.1 mg/kg, 0.5 mg/kg, 1 mg/kg, 2.5 mg/kg, 5 mg/kg and 10 mg/kg. The blood pressure, the heart beat, the flow rate through the femoral artery, the flow rate through the vertebral artery and the rectal and/or skin temperature are measured and the coloration of the skin and the bile (collected by catheterization of the bile duct after ligature of the cystic duct) is observed.

[5] = test system: spleen cells expressing a direct IgM antibody response; assay: test for cells forming lysis areas (PFC IgM, Cunningham); type: in vivo, mouse; conditions: dose not stated
Experimental: Immunological assays were carried out in order to point out the interest of CRL 41 240 as an immunomodulating agent. Specifically, the test used was the so-called test for cells forming lysis areas, described by A. J. […] et al. ("Further improvements in the plaque technique for detecting simple antibody forming cells"), Immunology 14, pages 599-601 (1968).
The test for cells forming lysis areas (or PFC IgM) explores the humoral immunity. Four days after immunization with a T-dependent antigen (in this case red blood corpuscles of sheep), the spleen cells expressing a direct IgM antibody response are counted. The mice used for this purpose are conventional female OF1 mice devoid of specific pathogenic organisms, weighing from 20 to 30 g and divided up into a control group of 14 animals and groups each containing 7 animals per dose and per product to be studied, administered orally on the same day as the antigen. An activity index I is calculated for each dose of product according to the following equation: [formula]
This test is performed at least twice for each dose of test product [C(control amimals), 0.01, 0.1, 10 and 100 mg/kg] and a statistical study is undertaken using the Student t test after variance analysis on the number of lyses per spleen.

[6] = test system: LEWIS' carcinoma; assay: LEWIS' carcinoma in mice; type: in vivo, mouse
Experimental: a. animals: consanguineous female mice (C57 BL6), b. infecting cells: 10^5 cells injected subcutaneously into the back of the animals, c. monitoring of the tumor growth by measurement of the tumor twice a week, d. evaluation of the pulmonary metastases after fixation of the lungs of the dead animals in BOUIN's fixative.
Using the same procedures, the association of CRL 41 220 with 150 mg/kg of cyclophosphamide gives the results collated in Table II below.

[7] = test system: CNS; assay: overall neuropsychopharmacological (CNS) profile; type: in vivo, mouse; rat; conditions: i.p., mice and rats; dose not stated
Experimental: The neuropsychopharmacological study of CRL 41 219 was carried out as indicated above for CRL 41 224.
The neuropsychopharmacological study of CRL 41 220 was carried out in accordance with the procedures given above for CRL 41 224.

[8] = test system: delayed hypersensitivity to the red blood corpuscles of sheep; assay: delayed hypersensitivity to the red blood corpuscles of sheep (Miller); type: in vivo; conditions: dose not stated
[9] = test system: immunological properties; assay: immunological properties, overall; type: in vivo; conditions: dose not stated
Source text: The present 1-(acetylaminophenyl)-2-aminopropanone derivatives are useful in therapy. They all act on the CNS, more precisely as antidepressants. They have a stimulant or excitant component in their neuropsychopharmacological profile.

[10] = dogs, after accumulated 19.1 mg/kg intraduodenal
[11] = dogs, after intraduodenal CRL 41 220
[12] = CRL 41 220 2 mg/kg + cyclophosphamide 150 mg/kg

Which “LD-0 (maximum non-lethal dose)” value [1] does the source give for `CC(=O)Nc1c(Cl)cc(C(=O)C(C)NC(C)C)cc1Cl` (stereo not shown) [CRL 41 220, 1-(4-acetylamino-3,5-dichlorophenyl)-2-isopropylaminopropanone hydrochloride] here?
The value was “greater than 128 mg/kg”.

And the LD-30 [1]?
Its LD-30 is “about 250 mg/kg”.

What about the LD50 [2] of the same compound?
The LD50 was roughly 500 mg/kg.

And the “clinical result: circulatory disorders and insufficient immunoreaction (recurrent herpes, rheumatoid polyarthritis, severe measles)” value [3]?
The value was “good results”.

And the respiratory stimulation ([4]; 4 dogs, intraduodenal)?
The respiratory stimulation was “induces respiratory stimulation in the 4 dogs”.

And the “diastolic blood pressure before isoprenaline” value [4, 10]?
The value was 112 mm Hg.

And the “diastolic blood pressure with 10 μg/kg of isoprenaline” value [4, 10]?
Its value is 47 mm Hg.

What about the “effect of isoprenaline on the diastolic blood pressure after CRL 41 220” value [4, 10] of the same compound?
Its value is “very slightly modified as regards the diastolic blood pressure”.

What about the “effect of isoprenaline on the heart beat after CRL 41 220” value [4, 10] of the same compound?
Its value is “not modified as regards the heart beat”.

And the “heart beat before isoprenaline” value [4, 10]?
Its value is 221 beats/minute.

What about the “heart beat with 10 μg/kg of isoprenaline” value [4, 10] of the same compound?
The value was 275 beats/minute.

What about the “effect of 1 mg/kg of propanolol at the end of the test” value [4, 11] of the same compound?
Its value is “suppresses all the effects of CRL 41 220”.

And the “systolic blood pressure before noradrenaline” value [4, 11]?
The value was 202 mm Hg.

And the “systolic blood pressure with 2 μg/kg of noradrenaline” value [4, 11]?
Its value is 272 mm Hg.

What about the “hypertension induced by noradrenaline” value ([4]; dogs, after intraduodenal CRL 41 220, noradrenaline 2 μg/kg) of the same compound?
Its value is “hypertension induced by noradrenaline is reduced”.

And the overall cardiovascular action ([4]; dogs, intraduodenal)?
The overall cardiovascular action was “acts as a hypotensive agent”.

And the “rectal and skin temperatures” value ([4]; dogs, intraduodenal)?
The value was “increases the rectal and skin temperatures”.

And the femoral flow rate ([4]; dogs, intraduodenal, 1 mg/kg)?
Its femoral flow rate is “increases the vertebral flow rate as from a dose of 0.5 mg/kg, the femoral flow rate”.

And the heart beat ([4]; dogs, intraduodenal, 2.5 mg/kg)?
The heart beat was “increases the vertebral flow rate as from a dose of 0.5 mg/kg, the femoral flow rate at a dose of 1 mg/kg and the heart beat”.

What about the hypotensive effect ([4]; dogs, intraduodenal, 10 mg/kg) of the same compound?
The hypotensive effect was “hypotensive effect”.

And the vertebral flow rate ([4]; dogs, intraduodenal, as from 0.5 mg/kg)?
Its vertebral flow rate is “increases the vertebral flow rate”.

What about the “immunomodulating activity, test for cells forming lysis areas” value [5] of the same compound?
Its value is “immunomodulating stimulant capacity”.

And the “animals treated still being alive several weeks after the experiment” value [6, 12]?
The value was “all”.

What about the “protective action in respect of LEWIS' carcinoma” value [6, 12] of the same compound?
Its value is “unquestionable protective”.

And the “differences compared with cyclophosphamide used by itself” value ([6]; CRL 41 220 5 mg/kg + cyclophosphamide 150 mg/kg)?
Its value is “substantially few”.

What about the “toxicity of the association compared with cyclophosphamide used by itself” value ([6]; CRL 41 220 100 mg/kg + cyclophosphamide 150 mg/kg) of the same compound?
The value was “increase in the toxicity”.

What about the “activity in LEWIS' carcinoma, used by itself” value ([6]; female C57 BL6 mice, alone) of the same compound?
Its value is “inactive”.

What about the “activity in the study of LEWIS' carcinoma, overall statement” value ([6]; mice) of the same compound?
Its value is “active”.

What about the “overall action on the CNS” value [7] of the same compound?
The value was “antidepressant and stimulant effects”.

And the “immunomodulating activity, delayed hypersensitivity” value [8]?
Its value is “immunomodulating stimulant capacity”.

What about the “immunological properties, overall” value [9] of the same compound?
The value was “beneficial immunomodulating effects”.

Source: US4963570A, “1-(acetylaminophenyl)-2-aminopropanone derivatives and pharmaceutical compositions thereof” (Laboratoire L. Lafon, priority 1983, dated 1990)
